In patent US20080293820A1, “METHODS FOR IMPROVING PHYSICAL FUNCTION IN FIBROMYALGIA” (Cypress Bioscience, Inc., priority 2007, published 2008):
Values joined by “and” are separate entries in the source; they are usually repeats but may differ in a detail not shown here. Identical values can stand only once. Counter-ions that a name gives are not always drawn.

What was measured:
[1] = system: patients who met the 1990 ACR criteria for fibromyalgia syndrome; test: Example 1: multi-center double-blind, randomized, placebo-controlled study of milnacipran for the treatment of fibromyalgia (888 patients); type: in vivo, human; design: Mean Change from Baseline in PFI SF-36 domain score / Mean Change from Baseline in PAIN SF-36 domain score / Mean Change from Baseline in GHP SF-36 domain score / Mean Change from Baseline in ROLP SF-36 domain score: scale not given here; conditions: for responders for the treatment of the pain of fibromyalgia (pain composite), % = m/n: observed cases (OC), hydrochloride; for odds ratio of response / number of responders m (pain of fibromyalgia): OC; for Mean Change from Baseline in GHP SF-36 domain score / Mean Change from Baseline in PAIN SF-36 domain score / Mean Change from Baseline in PCS Score / Mean Change from Baseline in PFI SF-36 domain score / Mean Change from Baseline in ROLP SF-36 domain score: Observed Cohort
Description: The primary outcome was a composite responder analysis assessing response rate at weeks 14 and 15, and the secondary analysis assessed response rate at weeks 26 and 27.
This was a multi-center, randomized, double-blinded, placebo-controlled three-arm study, which enrolled 888 patients who met the 1990 ACR criteria for fibromyalgia syndrome as well as the more detailed admission criteria outlined in the protocol.
Patients were randomized to receive either placebo, 100 mg/day milnacipran, or 200 mg/day milnacipran in a ratio of a 1:1:2. All randomized medications (placebo and milnacipran) were administered in a split-dose (BID) fashion. The doses were administered in a dose escalation regimen as outlined below:
All patients were scheduled to receive a total of 24 weeks of milnacipran or placebo after the 3 weeks of dose escalation steps, for a total of 27 weeks of milnacipran or placebo exposure.
The primary endpoint of this study was a composite responder analysis implementing analysis of three domains of interest, evaluated at […]. The domains measured were:
1) pain (measured by an electronic diary as a daily recall pain score, calculated to weekly average scores)
2) patient global (measured by the PGIC, 1-7 scale)
3) physical function (measured by the SF-36 PCS).
For the primary analysis, the pain domain score was determined by a calculation that compared the average of treatment weeks 14 and 15 to the two baseline weeks, and treatment weeks 26 and 27 vs. baseline for the secondary analysis. The last observation was carried forward if neither the week 14 nor week 15 (or week 26/27) patient self-reported pain score is available to compare to the baseline value.
A responder was defined as a subject who experienced a greater than 30% reduction in pain from baseline and improvement on the PGIC.
At three months, the percentage of responders was: 35.44% (56/158) in the placebo group; 53.33% (72/135) (p=0.001) in the milnacipran 100 mg/day group; and 55.00% (143/260) (p<0.001) in the milnacipran 200 mg/day group. At six months, the percentage of responders was: 32.86% (46/140) in the placebo group; 49.59% (60/121) (p=0.002) in the milnacipran 100 mg/day group; and 51.74% (119/230) (p<0.001) in the milnacipran 200 mg/day group. See Table 1 for a summary of the results in the Intent-to-Treat Population and Table 2 for a summary of the Last Observation Carried Forward (LOCF), Baseline Observation Carried Forward (BOCF) and study completer (OC) populations. LOCF is an analysis in which observations are carried forward to the last time point for patients who dropped out. The LOCF analysis treats the carried-forward data as observed data at the last time point. BOCF is an analysis that requires the patient remain active in the trial to be evaluated for response. If a patient withdraws from the trial for any reason they are classed as a non-responder irregardless of their pain and global scores at the time of withdrawal.
The following domains were used to evaluate the PCS score: physical function (PFI), role physical (ROLP), bodily pain (PAIN), general health profile (GHP), […] (VIT), social role (SOC), role emotional (ROLE) and mental health index (MHI). The PFI, ROLP, PAIN and GHP domains are positively weighted in the PCS calculation, and the VIT, SOC, ROLE and MHI domains are negatively weighted in the PCS calculation (Normative Value=50, SD=10).

[2] = system: fibromyalgia patients; conditions: cited from earlier work
[3] = both milnacipran treatment groups (QD and BID), escalation to maximum 200 mg/day

CCN(CC)C(=O)C1(c2ccccc2)CC1CN (racemic) [milnacipran, Z-2-aminomethyl-1-phenyl-N,N-diethylcyclopropanecarboxamide hydrochloride]
physical function in patients with fibromyalgia compared to placebo (in words) ([1]; 100 mg or 200 mg): surprisingly and effectively improves physical function
responders for the treatment of the pain of fibromyalgia (pain composite), % = m/n ([1]; 100 mg/day, treatment weeks 14-15 (3 months)): 53.33% and 53.3%
responders for the treatment of the pain of fibromyalgia (pain composite), % = m/n ([1]; 100 mg/day, treatment weeks 14-15 (3 months), listed as Milnacipran): 53.33%
responders for the treatment of the pain of fibromyalgia (pain composite), % = m/n ([1]; 100 mg/day, treatment weeks 26-27 (6 months)): 49.59% and 49.6%
responders for the treatment of the pain of fibromyalgia (pain composite), % = m/n ([1]; 100 mg/day, treatment weeks 26-27 (6 months), listed as Milnacipran): 49.59%
odds ratio of response ([1]; 100 mg/day, weeks 14-15): 2.10
number of responders m (pain of fibromyalgia) ([1]; 100 mg/day, weeks 14-15, n=135): 72
odds ratio of response ([1]; 100 mg/day, weeks 26-27): 1.96
number of responders m (pain of fibromyalgia) ([1]; 100 mg/day, weeks 26-27, n=121): 60
Pain Composite responder rate, Sensitivity Analysis II ([1]; 100 mg, 3 month): 32.%
Pain Composite responder rate, Sensitivity Analysis III ([1]; 100 mg, 3 month): 32.1%
Pain Composite responder rate, Sensitivity Analysis I (BOCF) ([1]; 100 mg, 3 month): 32.1%
Individual component responder rate: PGIC (LOCF) ([1]; 100 mg, 3 month): 54.0%
Individual component responder rate: Pain (LOCF) ([1]; 100 mg, 3 month): 35.7%
Pain Composite responder rate, Primary Analysis (LOCF) ([1]; 100 mg, 3 month): 33.5%
Pain Composite responder rate, Sensitivity Analysis II ([1]; 100 mg, 6 month): 27.2%
Pain Composite responder rate, Sensitivity Analysis III ([1]; 100 mg, 6 month): 29.5%
Pain Composite responder rate, Sensitivity Analysis I (BOCF) ([1]; 100 mg, 6 month): 26.8%
Individual component responder rate: PGIC (LOCF) ([1]; 100 mg, 6 month): 49.6%
Individual component responder rate: Pain (LOCF) ([1]; 100 mg, 6 month): 35.7%
Pain Composite responder rate, Primary Analysis (LOCF) ([1]; 100 mg, 6 month): 30.8%
Mean Change from Baseline in GHP SF-36 domain score ([1]; 100 mg, Tx 3): 5.9
Mean Change from Baseline in PAIN SF-36 domain score ([1]; 100 mg, Tx 3): 11.8
Mean Change from Baseline in PCS Score ([1]; 100 mg, Tx 3): 3.6
Mean Change from Baseline in PFI SF-36 domain score ([1]; 100 mg, Tx 3): 6.4
Mean Change from Baseline in ROLP SF-36 domain score ([1]; 100 mg, Tx 3): 12.3
Mean Change from Baseline in GHP SF-36 domain score ([1]; 100 mg, Tx 7): 6.3
Mean Change from Baseline in PAIN SF-36 domain score ([1]; 100 mg, Tx 7): 15.0
Mean Change from Baseline in PCS Score ([1]; 100 mg, Tx 7): 4.6
Mean Change from Baseline in PFI SF-36 domain score ([1]; 100 mg, Tx 7): 7.6
Mean Change from Baseline in ROLP SF-36 domain score ([1]; 100 mg, Tx 7): 16.4
Mean Change from Baseline in GHP SF-36 domain score ([1]; 100 mg, Tx 11): 8.1
Mean Change from Baseline in PAIN SF-36 domain score ([1]; 100 mg, Tx 11): 19.4
Mean Change from Baseline in PCS Score ([1]; 100 mg, Tx 11): 5.9
Mean Change from Baseline in PFI SF-36 domain score ([1]; 100 mg, Tx 11): 10.6
Mean Change from Baseline in ROLP SF-36 domain score ([1]; 100 mg, Tx 11): 18.6
Mean Change from Baseline in GHP SF-36 domain score ([1]; 100 mg, Tx 15): 7.8
Mean Change from Baseline in PAIN SF-36 domain score ([1]; 100 mg, Tx 15): 18.1
Mean Change from Baseline in PCS Score ([1]; 100 mg, Tx 15): 6.2
Mean Change from Baseline in PFI SF-36 domain score ([1]; 100 mg, Tx 15): 11.4
Mean Change from Baseline in ROLP SF-36 domain score ([1]; 100 mg, Tx 15): 19.3
responders for the treatment of the pain of fibromyalgia (pain composite), % = m/n ([1]; 200 mg/day, treatment weeks 14-15 (3 months)): 55.0%
responders for the treatment of the pain of fibromyalgia (pain composite), % = m/n ([1]; 200 mg/day, treatment weeks 14-15 (3 months), listed as Milnacipran): 55.00%
responders for the treatment of the pain of fibromyalgia (pain composite), % = m/n ([1]; 200 mg/day, treatment weeks 26-27 (6 months)): 51.74% and 51.7%
responders for the treatment of the pain of fibromyalgia (pain composite), % = m/n ([1]; 200 mg/day, treatment weeks 26-27 (6 months), listed as Milnacipran): 51.74%
odds ratio of response ([1]; 200 mg/day, weeks 14-15): 2.20
number of responders m (pain of fibromyalgia) ([1]; 200 mg/day, weeks 14-15, n=260): 143
odds ratio of response ([1]; 200 mg/day, weeks 26-27): 2.20
number of responders m (pain of fibromyalgia) ([1]; 200 mg/day, weeks 26-27, n=230): 119
Pain Composite responder rate, Sensitivity Analysis II ([1]; 200 mg, 3 month): 32.7%
Pain Composite responder rate, Sensitivity Analysis III ([1]; 200 mg, 3 month): 32.4%
Pain Composite responder rate, Sensitivity Analysis I (BOCF) ([1]; 200 mg, 3 month): 32.4%
Individual component responder rate: PGIC (LOCF) ([1]; 200 mg, 3 month): 50.6%
Individual component responder rate: Pain (LOCF) ([1]; 200 mg, 3 month): 38.3%
Pain Composite responder rate, Primary Analysis (LOCF) ([1]; 200 mg, 3 month): 34.9%
Pain Composite responder rate, Sensitivity Analysis II ([1]; 200 mg, 6 month): 28.6%
Pain Composite responder rate, Sensitivity Analysis III ([1]; 200 mg, 6 month): 29.9%
Pain Composite responder rate, Sensitivity Analysis I (BOCF) ([1]; 200 mg, 6 month): 27.0%
Individual component responder rate: PGIC (LOCF) ([1]; 200 mg, 6 month): 49.9%
Individual component responder rate: Pain (LOCF) ([1]; 200 mg, 6 month): 35.4%
Pain Composite responder rate, Primary Analysis (LOCF) ([1]; 200 mg, 6 month): 32.2%
Mean Change from Baseline in GHP SF-36 domain score ([1]; 200 mg, Tx 3): 6.0
Mean Change from Baseline in PAIN SF-36 domain score ([1]; 200 mg, Tx 3): 12.5
Mean Change from Baseline in PCS Score ([1]; 200 mg, Tx 3): 3.6
Mean Change from Baseline in PFI SF-36 domain score ([1]; 200 mg, Tx 3): 8.2
Mean Change from Baseline in ROLP SF-36 domain score ([1]; 200 mg, Tx 3): 13.0
Mean Change from Baseline in GHP SF-36 domain score ([1]; 200 mg, Tx 7): 8.5
Mean Change from Baseline in PAIN SF-36 domain score ([1]; 200 mg, Tx 7): 18.6
Mean Change from Baseline in PCS Score ([1]; 200 mg, Tx 7): 5.9
Mean Change from Baseline in PFI SF-36 domain score ([1]; 200 mg, Tx 7): 11.0
Mean Change from Baseline in ROLP SF-36 domain score ([1]; 200 mg, Tx 7): 19.0
Mean Change from Baseline in GHP SF-36 domain score ([1]; 200 mg, Tx 11): 7.7
Mean Change from Baseline in PAIN SF-36 domain score ([1]; 200 mg, Tx 11): 16.8
Mean Change from Baseline in PCS Score ([1]; 200 mg, Tx 11): 5.6
Mean Change from Baseline in PFI SF-36 domain score ([1]; 200 mg, Tx 11): 10.7
Mean Change from Baseline in ROLP SF-36 domain score ([1]; 200 mg, Tx 11): 18.4
Mean Change from Baseline in GHP SF-36 domain score ([1]; 200 mg, Tx 15): 8.2
Mean Change from Baseline in PAIN SF-36 domain score ([1]; 200 mg, Tx 15): 19.3
Mean Change from Baseline in PCS Score ([1]; 200 mg, Tx 15): 6.1
Mean Change from Baseline in PFI SF-36 domain score ([1]; 200 mg, Tx 15): 11.9
Mean Change from Baseline in ROLP SF-36 domain score ([1]; 200 mg, Tx 15): 19.9
effect on the symptom of pain in FMS (in words) ([2]; 100 mg BID): effective acute (short-term) therapy
PGIC: completers who reported an improvement in their overall status [2, 3]: over 70%
PGIC: completers who reported worsening [2, 3]: 10%
